In patent publication US20190330290A1, “PHARMACEUTICAL ASSOCIATION OF GROWTH FACTOR RECEPTOR AGONIST AND ADHESION PROTEIN INHIBITOR FOR CONVERTING A NEOPLASTIC CELL INTO A NON-NEOPLASTIC CELL AND USES THEREOF” (HISTIDE AG, priority 2015, published 2019):
Where no end group is shown, it is not given here.

How the values were obtained:
[1] = tested on: p53; assay: p53 protein expression level, immunofluorescence staining quantified with ImageJ; type: cell-based, human; settings: MG63 cells; alginate matrix with cyclic GFR-binding peptide + SiRNA Integrin alpha 3 + SiRNA Integrin beta 1; 48 h; 400 ng/mL GFR-binding compound
Description: (§1) The cells were first fixed for 20 min with 4% paraformaldehyde/PBS at 4° C. After fixation, the cells were permeabilized in PBS containing 1% Triton X-100 for 15 min. Protein immunofluorescent visualization was performed by first treating the cells with 1% (v/v) specific monoclonal antibodies for 1 hour at 37° C. Then the samples were incubated with Alexa fluor® 568 or 647 (F(ab′)2 fragment of IgG(H+L)) during 30 min at room temperature. The cell nuclei were counterstained in 20 ng/mL DAPI for 10 min at room temperature.
(§2) For this type of quantification the freeware image analysis ImageJ® software was used. The raw image was first converted to an 8-bit file, and then the unsharp mask feature was used (settings 1:0.2) to remove the image background (rolling ball radius 10). After smoothing, the resulting image, which appears similar to the original photomicrograph but with minimal background, was then converted to a binary image by setting a threshold. Threshold values were determined empirically by selecting a setting, which gave the most accurate binary image for a subset of randomly selected photomicrographs. The cell area was determined by manual delineation on raw fluorescent images. Total contact area and mean contact area per cell were calculated by “analyse particules” in ImageJ®. A minimum of 50 cells per condition were analyzed.
(§3) Neoplastic cells (in this example osteosarcoma cells) were cultured in the presence of pharmaceutical associations of the invention. A rapid (24 hours) decrease of the tumor markers was observed (FIG. 5). The adhesion checkpoint then activates the tumor suppressor proteins p53 and pRB.
(§4) The alginate used in these experiments was the Ultra Pure Sodium alginate powder PRONOVA UP MVG from Novamatrix (FMC Biopolymers, cat. no. 4200106). To a 1% MillQ water (1 g per 100 mL) alginate solution were added the cyclic GFR-binding peptide and the SiRNA molecules. The resulting mixture was then added to the cell cultures for 48 h.

[2] = tested on: pRB; assay: pRB phosphorylation level, immunofluorescence staining quantified with ImageJ; type: cell-based, human
Description: as §1, §2, §3, §4

[3] = MG63 cells, alginate matrix with cyclic GFR-binding peptide + SiRNA Integrin alpha 3 + SiRNA Integrin beta 1, 48 h, 400 ng/mL GFR-binding compound
[4] = human osteosarcoma cells, MG63, pharmaceutical association containing the GFR-binding compound (Table 6)

| Sequence | P53 (%) [1] [%] | pRB (%) [2, 3] [%] | pRB (%) [2, 4] [%] |
| --- | --- | --- | --- |
| AAAAAAAAADAANNVVGIPEPSSVSQELSATSMLYYDAANNVV (also: cyclic) [SEQ ID NO: 4730] | 37 | 10 |  |
| NDEGLESVPTEESAISMLYL (Non-cyclic GFR-binding peptide) [SEQ ID NO: 56] |  |  | 18 |
| SSVKSQPSRVHHSPISILFI (Non-cyclic GFR-binding peptide) [SEQ ID NO: 57] |  |  | 17 |
| GGGGGGGGGFDNDENVVRVPSTSSVPEKMEPLTMLYYFDNDENVV (also: cyclic (mode not given here)) [SEQ ID NO: 4736] | 47 | 9 |  |
| GGGGGGGGGDDSSNVIAASKASSTPTDLNAISTLYFDDSSNVI (also: cyclic (mode not given here)) [SEQ ID NO: 4728] | 33 | 15 |  |
| GGGGGGGGGFDNDENVVGIPEPSSAPVDMRPVQIRKIFDNDENVV (also: cyclic (mode not given here)) [SEQ ID NO: 4742] | 46 | 14 |  |
| GGGGGGGGGDDSSNVIKIPKASSVPTGGSNITVQIMDDSSNVI (also: cyclic (mode not given here)) [SEQ ID NO: 4722] | 51 | 17 |  |
| GGGGGGGGGDENEKVVRVPSTSSTQVDLNAISVLYFDENEKVV (also: cyclic (mode not given here)) [SEQ ID NO: 4729] | 38 | 13 |  |
| AAAAAAAAADAANNVVKIPKASSSRVRLSSLSTLFFDAANNVV (also: cyclic) [SEQ ID NO: 4727] | 32 | 11 |  |
| AAAAAAAAADENEKVVRVPSTSSVPAEESNITVQIMDDSSNVI (also: cyclic (mode not given here)) [SEQ ID NO: 4738] | 55 | 16 |  |
| AAAAAAAAADENEKVVAASKASSVPQEEEPLPMVYYDAANNVV (also: cyclic) [SEQ ID NO: 4721] | 39 | 12 |  |
| ASASPSSVSQDLSSLSILFF (Non-cyclic GFR-binding peptide) [SEQ ID NO: 58] |  |  | 15 |
| AAAAAAAAADAANNVVKIPKASSTQVRLRSVKTAKVDAANNVV (also: cyclic) [SEQ ID NO: 4740] | 52 | 15 |  |
| GGGGGGGGGDENEKVVGIPEPSSAPVDLKPLSTLYVDENEKVV (also: cyclic (mode not given here)) [SEQ ID NO: 4720] | 38 | 9 |  |
| GGGGGGGGGDENEKVVKIPKASSTQVRLRPVQIRKIDAANNVV (also: cyclic (mode not given here)) [SEQ ID NO: 4724] | 47 | 7 |  |
| GGGGGGGGGDENEKVVSTPPTSSVPTEVSPINTLYFDENEKVV (also: cyclic (mode not given here)) [SEQ ID NO: 4733] | 38 | 17 |  |
| GGGGGGGGGDENEKVVRVPSTSSTQVKMSAISMLYLDENEKVV (also: cyclic (mode not given here)) [SEQ ID NO: 4726] | 32 | 10 |  |

| Sequence | P53 (%) [1] [%] | pRB (%) [2, 3] [%] | pRB (%) [2, 4] [%] |
| --- | --- | --- | --- |
| GGGGGGGGGFDNDENVVSTPPTSSTPTKMSNITTQIMFDNDENVV (also: cyclic (mode not given here)) [SEQ ID NO: 4737] | 53 | 18 |  |
| GGGGGGGGGDDSSNVIRVPSTSSAPTKMNAISMLYFDENEKVV (also: cyclic (mode not given here)) [SEQ ID NO: 4719] | 44 | 15 |  |
| SSVKSQPSRVHHKPLSMLYV (Non-cyclic GFR-binding peptide) [SEQ ID NO: 62] |  |  | 18 |
| NDEGLESVPTEERSVKVAKV (Non-cyclic GFR-binding peptide) [SEQ ID NO: 63] |  |  | 22 |
| VVPKPSSAPTQLEPISILYL (Non-cyclic GFR-binding peptide) [SEQ ID NO: 59] |  |  | 21 |
| GGGGGGGGGDENEKVVNDEGLESVPEDLSSLSVLFFDENEKVV (also: cyclic (mode not given here)) [SEQ ID NO: 4717] | 42 | 12 |  |
| AAAAAAAAADENEKVVAASKASSVPEKMRPVQTRKIDDSSNVI (also: cyclic) [SEQ ID NO: 4741] | 49 | 15 |  |
| SIPKASSTPTELSPINMLYF (Non-cyclic GFR-binding peptide) [SEQ ID NO: 54] |  |  | 23 |
| GGGGGGGGGDDSSNVISTPPTSSVSQKMKPLSILYVDDSSNVI (also: cyclic (mode not given here)) [SEQ ID NO: 4735] | 51 | 8 |  |
| GGGGGGGGGFDNDENVVAASKASSVPQRLRSVKVAKVFDNDENVV (also: cyclic (mode not given here)) [SEQ ID NO: 4739] | 51 | 14 |  |
| GGGGGGGGGDENEKVVKIPKASSVSQQLEPISTLYLDENEKVV (also: cyclic (mode not given here)) [SEQ ID NO: 4732] | 42 | 9 |  |
| AAAAAAAAADENEKVVAASKASSSRVELRSVKIAKVDDSSNVI (also: cyclic) [SEQ ID NO: 4723] | 50 | 8 |  |
| GGGGGGGGGDDSSNVIRVPSTSSVPTGQSAISTLYLDDSSNVI (also: cyclic (mode not given here)) [SEQ ID NO: 4718] | 40 | 10 |  |
| AAAAAAAAADENEKVVKIPKASSVPTKMKPLSVLYVDDSSNVI (also: cyclic (mode not given here)) [SEQ ID NO: 4734] | 50 | 12 |  |
| GGGGGGGGGDDSSNVIGIPEPSSAPTRLEPISMLYLDENEKVV (also: cyclic (mode not given here)) [SEQ ID NO: 4731] | 40 | 8 |  |
| GGGGGGGGGDDSSNVISTPPTSSSRVQLSAISMLYLDDSSNVI (also: cyclic (mode not given here)) [SEQ ID NO: 4725] | 29 | 6 |  |
